Results: patent US8853276B2, “Guanidine derivatives in cinnamic series” (Produits Chimiques Auxiliaires et de Synthese, priority 2010, dated 2014)

Tested on: fibrillin-1
Experiment: Anti-glycation study on skin explants: fibrillin-1 immunolabeling with image analysis
Format: cell-based, human
Details: for Fibrillin-1 (% of surface area under the dermo-epidermal junction), Mean: topical 2 mg per explant on D0, D3, D5, D7, aminoguanidine at 0.15%, compound 29 at 1%
Protocol: The anti-aging properties of a derivative according to the invention were evaluated by performing a comparative study of the anti-glycation activity of several compounds.
From an arm of a person, 21 explants (about 10 mm in diameter) were prepared and placed under survival conditions in BEM specific medium (BIO-EC's Explants Medium).
The explants were divided into seven batches of three explants:
Methylglyoxal was incorporated into the survival medium on D3, D5 and D7.
Compound 29 and the reference, aminoguanidine, were applied topically at a rate of 2 mg per explant on D0, D3, D5 and D7.
The controls (batches T0 and T) received no treatment.
On D0, the three explants of batch T0 were sampled and divided into two. One half was fixed with buffered formaldehyde and the other half was frozen at −80° C. On D9, three explants from each batch were sampled and treated in the same manner.
After 24 hours of fixing in the buffered formaldehyde, the samples were dehydrated and impregnated with paraffin using a Leica 1020 dehydration robot. They were embedded using a Leica EG 1160 coating station. 5 μm slices were produced using a Minot Leica RM 2125 microtome and bonded to Superfrost® histological glass slides.
The nuclei were stained with propidium iodide. The labeling was quantified by image analysis measurements with the Q-WIN Leica system.

[1] = D9 with methylglyoxal (in survival medium D3, D5, D7)
[2] = D9 with methylglyoxal, relative to the control batch T without methylglyoxal

Structure (SMILES) | Fibrillin-1 (% of surface area under the dermo-epidermal junction), Mean [1] | increase in the percentage of surface area occupied by fibrillin-1 under the dermo-epidermal junction [2] | Fibrillin-1 (% of surface area under the dermo-epidermal junction), Mean (D9 without methylglyoxal) | reduction of the methylglyoxal-induced decrease in the expression of fibrillin-1 (D9, treatment in the presence of methylglyoxal) | expression of fibrillin-1 (labeling, observation) (D9 in the presence of methylglyoxal, compared with control batch T MG) | decrease in the percentage of surface area occupied by fibrillin-1 under the dermo-epidermal junction [2]
COc1cc(/C=C/C(=O)NNC(=N)N)ccc1O [Compound 29, imino{2-[(2E)-3-(4-hydroxy-3-methoxyphenyl)prop-2-enoyl]hydrazino}methanaminium nitrate] | 27.7% | 17% | 21.53% | – | – | –
N=C(N)NN [aminoguanidine, Aminoguanidine] | 21.0% | – | 28.3% | 49% | very sharp and greater than that observed on the control batch T MG with methylglyoxal | 12%
CC(=O)C=O [methylglyoxal, Methylglyoxal] | – | – | – | – | – | 23%
